Measured values: patent US20250011330A1, “Imidazo[1,2- a]pyrazine and Imidazo[1,2- a]pyridine Based Tyrosyl-DNA Phosphodiesterase I (TDP1) Inhibitors” (The USA, As Represented by the Secretary, Department of …, priority 2021, published 2025)
Like-named read-outs stand apart in the source and are kept apart here.

Tests used:
[1] = tested on: human colon cancer cell line HCT116; experiment: Synergistic effect with camptothecin (CPT) based on cell viability; conditions: for synergy with camptothecin: list in description
Description: The synergistic effects of the TDP1 inhibitors with CPT were tested in human colon cancer cell line HCT116 based on cell viability (Table 3, FIGS. 2-5). Cells were first seeded in a 384-well black-clear plate until 30% confluency and then incubated with a serial dilution of CPT at the range of 0-100 nM in the present or the absence of TDP1 inhibitors for 72 h at 37° C. Viable cell numbers were counted from the brightfield images taken by Biotek Cytation 5 (FIGS. 2-3). Fractional affect (Fa) and combination index (Ci) were analyzed with CompuSyn software. Synergistic scores of each TDP1 inhibitors were calculated and collected based on the data analysis from SynergyFinder (FIG. 4). […]

TDP2 [2] = molecular target: T1, TDP2 (Homo sapiens (Human), UniProt O95551); experiment: gel-based TDP2 fluorescence assay in vitro; format: biochemical; conditions: for inhibition of TDP2, primary screen: 111 μM, preincubation with TDP2 at room temperature overnight
T1 sequence (O95551 whole entry, species assumed): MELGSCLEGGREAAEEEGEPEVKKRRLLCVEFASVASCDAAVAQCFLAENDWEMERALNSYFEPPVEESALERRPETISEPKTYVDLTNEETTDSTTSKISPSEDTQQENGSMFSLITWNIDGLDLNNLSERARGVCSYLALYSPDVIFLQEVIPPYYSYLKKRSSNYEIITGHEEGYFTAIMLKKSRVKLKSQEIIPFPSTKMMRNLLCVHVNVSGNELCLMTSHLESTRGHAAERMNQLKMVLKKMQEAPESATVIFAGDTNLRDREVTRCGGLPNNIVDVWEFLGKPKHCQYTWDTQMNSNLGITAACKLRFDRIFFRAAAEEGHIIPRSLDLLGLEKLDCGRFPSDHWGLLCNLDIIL
Description: (TDP assay buffer: 50 mM Tris HCl, pH 7.5, 80 mM KCl, 2 mM EDTA, 1 mM DTT, 40 μg/ml BSA and 0.01% Tween-20. TDP1 (20 mg/mL in 25 mM Tris-HCl pH 7.2, 150 mM NaCl, 2 mM tris(2-carboxyethyl)phosphine) with 2 mL of well solution composed of 0.1 M MOPS/HEPES pH 7.5, 10% (w/v) PEG 8000, 20% (v/v) ethylene glycol, 0.03 M sodium fluoride, 0.03 M sodium bromide, 0.03 M sodium iodide, 0.03 M sodium bromide and sealed over […] well solution. AF647 labelling buffer: Tris-HCl (pH 7.2, 25 mM), NaCl (150 mM), and tris(2-carboxyethyl)phosphine hydrochloride (TCEP, 2 mM).)
(DNA only: Buffer+DMSO. DMSO only: Enzyme+DMSO. Drug: Enzyme+Drug, 25° C., 10 min+DNA, reaction at 25° C., 15 min.)

TDP1 [3] = molecular target: T2, TDP1 (Homo sapiens (Human), UniProt Q9NUW8); experiment: TDP1 gel-based in vitro fluorescence assay; format: biochemical; conditions: for inhibition of TDP1, primary screen: 111 μM, preincubation with TDP1 at room temperature overnight; for selectivity compared with TDP2, secondary screen: preincubation overnight at room temperature; for inhibition, secondary screen: preincubation with TDP overnight at room temperature
T2 sequence (Q9NUW8 whole entry): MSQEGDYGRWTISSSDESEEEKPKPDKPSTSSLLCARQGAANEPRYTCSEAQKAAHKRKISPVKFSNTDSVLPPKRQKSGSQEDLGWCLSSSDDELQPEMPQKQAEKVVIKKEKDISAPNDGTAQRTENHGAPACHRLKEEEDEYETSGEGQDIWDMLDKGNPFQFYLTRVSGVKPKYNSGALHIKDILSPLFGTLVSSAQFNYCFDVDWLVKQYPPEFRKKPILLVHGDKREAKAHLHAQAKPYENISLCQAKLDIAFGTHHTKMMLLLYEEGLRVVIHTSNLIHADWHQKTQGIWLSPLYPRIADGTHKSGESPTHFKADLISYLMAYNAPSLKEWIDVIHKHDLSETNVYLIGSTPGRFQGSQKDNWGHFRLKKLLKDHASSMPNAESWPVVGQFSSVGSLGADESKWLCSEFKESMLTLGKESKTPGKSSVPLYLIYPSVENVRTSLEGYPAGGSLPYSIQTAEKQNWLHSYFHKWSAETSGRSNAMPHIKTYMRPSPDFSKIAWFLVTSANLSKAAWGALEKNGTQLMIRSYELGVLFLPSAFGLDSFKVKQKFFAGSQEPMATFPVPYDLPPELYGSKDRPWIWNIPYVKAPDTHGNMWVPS

TDP2 [4] = molecular target: T1, TDP2; experiment: TDP2 degrading activity as stated in the description; conditions: list in description
TDP1 [5] = molecular target: T2, TDP1; experiment: gel-based TDP1 fluorescence assay of unpurified oxime libraries at 100 μM; format: biochemical; conditions: 100 μM in DMSO, oximes without purification
Description: The oximes were evaluated by gel-based TDP1 fluorescence assay in a concentration of 100 μM in DMSO. The fluorescence of DMSO blank vial was set as 0 and the fluorescence for the reference without TDP1 was set as 100%. Preparation: A mixture of aminooxy-containing 105 or 106 (10 μL, 30 mM in DMSO), aldehydes M1-T12 (10 μL, 30 mM in DMSO) and acetic acid (10 μL, 150 mM in DMSO) were agitated at room temperature overnight. Oximes 5-M1-T12 or 6-M1-T12 (30 uL, 10 mM in DMSO) were afforded.
Two set of oximes 105-X and 106-Y (XZ700-M1-T12, XZ699-M1-T12) ([…], 10 mM in DMSO) were prepared about 240 each starting from aminooxy-containing 105 (XZ700) or 106 (XZ699) based on the following method. A mixture of aminooxy-containing 105 or 106 (10 μL, 30 mM in DMSO) with about 240 aldehydes M1-T12 (10 μL, 30 mM in DMSO) (Table 4) separately in the present of acetic acid (10 μL, 150 mM in DMSO) were agitated at room temperature overnight in three 96-well plates in parallel. The formed oximes 105-M1 to 105-T12 and 106-M1 to 106-T12 (30 uL, 10 mM in DMSO) were diluted to 100 μM in DMSO and evaluated by gel-based TDP1 fluorescence assay. The fluorescence of the gel band of DMSO blank vial was set as 0 and the fluorescence for the reference gel band without TDP1 was set as 100%. […] Among them, with same aldehyde structures D1 and P3, both oximes 105-series (105-D1, 105-P3) and 106-series (106-D1, 106-P3) show great (>90%) TDP1 inhibition. […] To confirm the inhibitions, we have further evaluated the purified lead oximes by HPLC. (Table 7; FIG. 9)

TDP1 [6] = molecular target: T2, TDP1; experiment: Degradation assay (western blotting) of TDP1 in HCT116 and HEK293 cells; format: cell-based; conditions: for TDP1 degrading activity: list in description; for TDP1 degradation by covalent inhibitors: FIG. 39; for TDP1 degradation in cells: 200 uM concentration
Description: The degradation effect of the TDP1 inhibitors on TDP1 in human colon cancer cell line HCT116 and embryonic kidney cell line HEK293 were studied. Cells were first seeded in a 6-well plate until 60-80% confluency and then incubated with a serial dilution of TDP1 inhibitors at the range of 25-200 μM for 24-72 h at 37° C. […] Samples were then sonicated at 30% for 10 s and centrifuged for 15 min at 15000 rpm at 4 Celsius. Supernatant were collected and the concentration of total protein were measured by BCA Protein Assay Kit according to its protocols. Four micrograms of total protein for each sample were loaded and TDP1 level were conducted by western blotting.

[7] = Table 8, lead compounds with different linkers, read-out: TDP2 IC50
[8] = Table 8, lead compounds with different linkers, read-out: TDP1 IC50
[9] = Table 8, ratio of IC50 TDP2 to TDP1
[10] = Table 7, HPLC-purified oxime leads, read-out: TDP2 IC50
[11] = purified oximes, read-out: TDP2 IC50
[12] = Table 7, ratio of IC50 TDP2 to TDP1
[13] = purified oximes and SMM leads, read-out: TDP1 IC50
[14] = Table 9, fluorosulfates and sulfonyl fluorides, read-out: TDP2 IC50
[15] = Table 9, fluorosulfates and sulfonyl fluorides, read-out: TDP1 IC50

N#Cc1ccc(-c2ccc(Cn3cc(-c4ccc(-c5nc6ccccn6c5Nc5ccc(C(=O)O)cc5)cc4)nn3)cc2)nc1 [XZ719, 4-((2-(4-(1-(4-(5-Cyanopyridin-2-yl)benzyl)-1H-1,2,3-triazol-4-yl)phenyl)imidazo[1,2-a]pyridin-3-yl)amino)benzoic acid]
synergy with camptothecin [1]: exhibit synergy with camptothecin | IC50 (TDP2 [2]; [7]): 62.4 ± 18.6 µM | IC50 (TDP1 [3]; [8]): 21.6 ± 5 µM | FC (fold change) (TDP1 [3]; [9]): 3 | TDP2 degrading activity (TDP2 [4]): exhibit TDP2 degrading activity

O=C(O)c1ccc(Nc2c(-c3ccc(CO/N=C/c4ccc(N5CCCC5=O)cc4)cc3)nc3cc(-c4ccccc4)ccn23)cc1 [XZ703, (E)-4-((2-(4-((((4-(2-Oxopyrrolidin-1-yl)benzylidene)amino)oxy)methyl)phenyl)-7-phenylimidazo[1,2-a]pyridin-3-yl)amino)benzoic acid]
IC50 (TDP2 [2]; [10]): 10.9 ± 1.1 µM | IC50 (TDP2 [2]; [11]): ~10 µM | FC (fold change) (TDP1 [3]; [12]): 1 | IC50 (TDP1 [3]; [13]): ~10 µM | TDP2 degrading activity (TDP2 [4]): exhibit TDP2 degrading activity

O=C(O)c1ccc(Nc2c(-c3ccc(CON=Cc4ccc(-c5ccccc5)cc4)cc3)nc3cc(-c4ccccc4)ccn23)cc1 [Compound 106-M10, 4-((2-(4-(((([1,1′-biphenyl]-4-ylmethylene)amino)oxy)methyl)phenyl)-7-phenylimidazo[1,2-a]pyridin-3-yl)amino)benzoic acid]
TDP1 inhibition (TDP1 [5]): poor inhibition

N#Cc1ccc(-c2ccc(Cn3cc(-c4ccc5nc(-c6ccccc6)c(Nc6ccc(C(=O)O)cc6)n5c4)nn3)cc2)nc1 [XZ723, 4-((6-(1-(4-(5-Cyanopyridin-2-yl)benzyl)-1H-1,2,3-triazol-4-yl)-2-phenylimidazo[1,2-a]pyridin-3-yl)amino)benzoic acid]
IC50 (TDP2 [2]; [7]): 69.1 ± 11.8 µM | IC50 (TDP1 [3]; [8]): 66.4 ± 3.7 µM | FC (fold change) (TDP1 [3]; [9]): 1 | TDP2 degrading activity (TDP2 [4]): exhibit TDP2 degrading activity

N#Cc1ccc(-c2ccc(CO/N=C/c3ccc(-c4nc5cc(-c6ccccc6)ccn5c4Nc4ccc(C(=O)O)cc4)cc3)cc2)nc1 [XZ725]
TDP1 degrading activity (TDP1 [6]): exhibit TDP1 degrading activity | synergy with camptothecin [1]: exhibit synergy with camptothecin | IC50 (TDP2 [2]; [7]): > 100 µM | IC50 (TDP1 [3]; [8]): 25.6 ± 4.05 µM

O=C(O)c1ccc(Nc2c(-c3ccccc3OS(=O)(=O)F)nc3cc(-c4ccccc4)ccn23)cc1 [XZ730, 4-((2-(2-((Fluorosulfonyl)oxy)phenyl)-7-phenylimidazo[1,2-a]pyridin-3-yl)amino)benzoic acid]
TDP1 degradation by covalent inhibitors (TDP1 [6]): degrade TDP1 | TDP1 degrading activity (TDP1 [6]): exhibit TDP1 degrading activity | IC50 (TDP2 [2]): 39.5 µM | inhibition of TDP2, primary screen (TDP2 [2]): inhibition | IC50 (TDP1 [3]): 17.8 µM | inhibition of TDP1, primary screen (TDP1 [3]): inhibition | selectivity compared with TDP2, secondary screen (TDP1 [3]): 2 fold | inhibition, secondary screen (TDP1 [3]): μM inhibition | TDP2 degrading activity (TDP2 [4]): exhibit TDP2 degrading activity

O=C(O)c1ccc(Nc2c(-c3ccccc3)nc3ccccn23)cc1 [XZ615]
TDP1 degradation in cells (TDP1 [6]): does not | TDP1 degrading activity (TDP1 [6]): exhibit TDP1 degrading activity | IC50 (TDP2 [2]; [10]): > 100 µM | IC50 (TDP2 [2]; [7]): > 100 µM

O=C(O)c1ccc(Nc2c(-c3ccc(CON=Cc4ccc(-c5cnccn5)cc4)cc3)nc3cc(-c4ccccc4)ccn23)cc1 [Compound 106-E6, 4-((7-phenyl-2-(4-((((4-(pyrazin-2-yl)benzylidene)amino)oxy)methyl)phenyl)imidazo[1,2-a]pyridin-3-yl)amino)benzoic acid]
TDP1 inhibition (TDP1 [5]): good inhibition

O=C(O)c1ccc(Nc2c(-c3ccccc3)nc3cc(-c4ccccc4)ccn23)cc1 [XZ664, 4-((2,7-Diphenylimidazo[1,2-a]pyridin-3-yl)amino)benzoic acid]
TDP1 degradation in cells (TDP1 [6]): shows TDP1 degradation | TDP1 degrading activity (TDP1 [6]): exhibit TDP1 degrading activity | Synergy Score ([1]; with camptothecin (CPT), HCT116, 72 h, SynergyFinder 2.0): 9.1 | IC50 (TDP2 [2]; Table 3, read-out: TDP2 IC50): > 100 µM | IC50 (TDP2 [2]; [10]): > 100 µM | IC50 (TDP2 [2]; [7]): > 100 µM

O=C(O)c1ccc(N(c2c(-c3ccccc3OS(=O)(=O)F)nc3cc(-c4ccccc4)ccn23)S(=O)(=O)F)cc1 [XZ731, 4-((Fluorosulfonyl)(2-(2-((fluorosulfonyl)oxy)phenyl)-7-phenylimidazo[1,2-a]pyridin-3-yl)amino)benzoic acid]
inhibition of TDP2, primary screen (TDP2 [2]): inhibition | IC50 (TDP2 [2]; [14]): 45.5 µM | inhibition of TDP1, primary screen (TDP1 [3]): inhibition | IC50 (TDP1 [3]; [15]): 22.7 µM | selectivity compared with TDP2, secondary screen (TDP1 [3]): 2 fold | inhibition, secondary screen (TDP1 [3]): μM inhibition | inhibition of TDP1, secondary screen (TDP1 [3]; room temperature, preincubation 10 minutes): no inhibition | TDP2 degrading activity (TDP2 [4]): exhibit TDP2 degrading activity

O=S(=O)(F)c1ccc(Nc2c(-c3ccccc3)nc3ccccn23)cc1 [XZ734, 4-((2-Phenylimidazo[1,2-a]pyridin-3-yl)amino)benzenesulfonyl fluoride]
TDP1 degradation by covalent inhibitors (TDP1 [6]): degrade TDP1 | TDP1 degrading activity (TDP1 [6]): exhibit TDP1 degrading activity | IC50 (TDP2 [2]; [14]): > 100 µM | IC50 (TDP1 [3]; [15]): > 100 µM

N#Cc1ccc(-c2ccc(CO/N=C/c3ccc(-c4nc5ccccn5c4Nc4ccc(C(=O)O)cc4)cc3)cc2)nc1 [XZ724]
TDP1 degrading activity (TDP1 [6]): exhibit TDP1 degrading activity | IC50 (TDP2 [2]; [7]): > 100 µM | IC50 (TDP1 [3]; [8]): > 100 µM

O=C(O)c1ccc(Nc2c(-c3ccc(CO/N=C/c4ccc(-c5cnccn5)cc4)cc3)nc3cc(-c4ccccc4)ccn23)cc1 [XZ702, (E)-4-((7-Phenyl-2-(4-((((4-(pyrazin-2-yl)benzylidene)amino)oxy)methyl)phenyl)imidazo[1,2-a]pyridin-3-yl)amino)benzoic acid]
synergy with camptothecin [1]: exhibit synergy with camptothecin | IC50 (TDP2 [2]; [10]): 8.8 ± 2.9 µM | IC50 (TDP2 [2]; [11]): 8.8 ± 2.9 µM | FC (fold change) (TDP1 [3]; [12]): 3 | IC50 (TDP1 [3]; [13]): 3.1 ± 0.5 µM | TDP2 degrading activity (TDP2 [4]): exhibit TDP2 degrading activity

4-((2-(4-(2-((4-(5-((λ^2-Azaneylidene)-λ^3-methyl)pyridin-2-yl)phenyl)methoxy)ethyl)phenyl)imidazo[1,2-a]pyridin-3-yl)amino)benzoic acid [XZ727]
IC50 (TDP2 [2]; [7]): 70.5 ± 13.5 µM | TDP2 degrading activity (TDP2 [4]): exhibit TDP2 degrading activity

O=C(O)c1ccc(Nc2c(-c3ccccc3)nc3ccc(OS(=O)(=O)F)cn23)cc1 [XZ732, 4-((6-((Fluorosulfonyl)oxy)-2-phenylimidazo[1,2-a]pyridin-3-VA)amino)benzoic acid]
inhibition of TDP2, primary screen (TDP2 [2]): inhibition | IC50 (TDP2 [2]; [14]): 65.8 µM | IC50 (TDP1 [3]; [15]): > 100 µM | TDP2 degrading activity (TDP2 [4]): exhibit TDP2 degrading activity
